Source: US20120172369A1 (priority 2009, published 2012)
Like-named read-outs stand apart in the source and are kept apart here.

Biological target: T1, human DGAT1 enzyme (Homo sapiens, UniProt O75907)
T1 construct: made in house; host or cells: Sf9 insect cells (microsomal membranes)
T1 sequence (O75907 1-488): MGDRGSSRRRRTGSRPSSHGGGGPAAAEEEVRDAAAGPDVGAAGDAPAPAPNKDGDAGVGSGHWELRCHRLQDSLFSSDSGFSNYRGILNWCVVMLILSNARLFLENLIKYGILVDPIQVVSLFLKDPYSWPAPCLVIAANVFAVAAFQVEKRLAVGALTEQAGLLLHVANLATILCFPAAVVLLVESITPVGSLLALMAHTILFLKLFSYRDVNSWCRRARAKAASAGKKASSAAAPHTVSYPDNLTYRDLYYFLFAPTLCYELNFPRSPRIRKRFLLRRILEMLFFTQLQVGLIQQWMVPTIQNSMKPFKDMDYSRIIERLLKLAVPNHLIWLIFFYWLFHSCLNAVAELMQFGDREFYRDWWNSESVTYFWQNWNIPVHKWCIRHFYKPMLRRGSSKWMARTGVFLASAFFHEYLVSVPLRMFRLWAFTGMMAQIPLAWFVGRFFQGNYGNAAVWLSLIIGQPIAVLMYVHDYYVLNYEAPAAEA
Assay: in vitro DGAT1 inhibition assay (microsomes, [14C]-palmitoyl-CoA, SPA beads)
Format: biochemical
Protocol: The in vitro assay to identify DGAT1 inhibitors uses human DGAT1 enzyme expressed in Sf9 insect cells prepared as microsomes. The reaction was initiated by the addition of the combined substrates 1,2-dioleoyl-sn-glycerol and [^14C]-palmitoyl-Co A and incubated with test compounds and microsomal membranes for 2 hours at room temperature. The assay was stopped by adding 0.5 mg wheat germ agglutinin beads in assay buffer with 1% Brij-35 and 1% 3-cholamidopropyldimethyl-ammonio-1-propane sulfonate. Plates were sealed with TopSeal and incubated for 18 hours to allow the radioactive triglyceride product to come into proximity with the bead. Plates were read on a TopCount instrument.
Percent inhibition was calculated as the percent of (test compound inhibition minus non-specific binding) relative to (total binding minus non-specific binding). IC50 values were determined by curve fitting the data to a Sigmoidal dose-response in GraphPad Prism utilizing the following equation:
Y=A+(B−A)/(1+10̂((Log IC50−X))),
where A and B are the bottom and top of the curve (highest and lowest inhibition), respectively, and X is the logarithm of concentration.

[1] = human DGAT1 expressed in Sf9 insect cells, microsomes, 2 hours at room temperature, read-out: IC50

SMILES	IC50 [1] [µM]	IC50 [µM]
Cc1c(C(=O)Nc2ccc(N3CCN(C(=O)[C@H](O)c4ccccc4)CC3)nc2)oc2ccccc12 [Example 2, (R)—N-(6-(4-(2-hydroxy-2-phenylacetyl)piperazin-1-yl)pyridin-3-yl)-3-methylbenzofuran-2-carboxamide]	0.625	
Cc1c(C(=O)Nc2ccc(N3CCN(C(=O)C(O)C(F)(F)F)CC3)nc2)oc2ccccc12 (stereo not shown) [Example 3, 3-methyl-N-(6-(4-(3,3,3-trifluoro-2-hydroxypropanoyl)piperazin-1-yl)pyridin-3-yl)benzofuran-2-carboxamide]	0.589	
Cc1c(C(=O)Nc2ccc(N3CCN(C(=O)Cc4c(F)cccc4F)CC3)nc2)oc2ccccc12 [Example 4, N-(6-(4-(2-(2,6-difluorophenyl)acetyl)piperazin-1-yl)pyridin-3-yl)-3-methylbenzofuran-2-carboxamide]	0.046	
Cc1c(C(=O)Nc2ccc(N3CCN(C(=O)Nc4ccccc4F)CC3)nc2)oc2c(C)cccc12 [Example 8, 4-(5-(3,7-dimethylbenzofuran-2-carboxamido)pyridin-2-yl)-N-(2-fluorophenyl)piperazine-1-carboxamide]		0.048
Cc1c(C(=O)Nc2ccc(N3CCN(C(=O)Nc4ccccc4F)CC3)nc2)oc2c(F)cccc12 [Example 9, 4-(5-(7-fluoro-3-methylbenzofuran-2-carboxamido)pyridin-2-yl)-N-(2-fluorophenyl)piperazine-1-carboxamide]	0.049	
O=C(Nc1ccc(N2CCN(C(=O)Nc3ccccc3F)CC2)nc1)c1csc2ccccc12 [Example 10, 4-(5-(benzo[b]thiophene-3-carboxamido)pyridin-2-yl)-N-(2-fluorophenyl)piperazine-1-carboxamide]	0.037	
O=C(Nc1ccc(N2CCN(C(=O)Nc3ccccc3F)CC2)nc1)c1coc2ccccc12 [Example 11, 4-(5-(benzofuran-3-carboxamido)pyridin-2-yl)-N-(2-fluorophenyl)piperazine-1-carboxamide]	0.095	
Cc1c(C(=O)Nc2ccc(N3CCN(C(=O)Nc4ccccc4F)CC3)nc2)oc2cc(-c3ccccc3)ccc12 [Example 13, N-(2-fluorophenyl)-4-(5-(3-methyl-6-phenylbenzofuran-2-carboxamido)pyridin-2-yl)piperazine-1-carboxamide]	0.282	
CCOC(=O)c1ccccc1NC(=O)N1CCN(c2ccc(NC(=O)c3oc4ccc(-c5ccccc5)cc4c3C)cn2)CC1 [Example 14, ethyl 2-(4-(5-(3-methyl-5-phenylbenzofuran-2-carboxamido)pyridin-2-yl)piperazine-1-carboxamido)benzoate]	0.361	
Cc1c(C(=O)Nc2ccc(N3CCC(COc4cccc(C(=O)O)c4)CC3)nc2)oc2ccc(-c3ccccc3)cc12 [Example 18, 3-((1-(5-(3-methyl-5-phenylbenzofuran-2-carboxamido)pyridin-2-yl)piperidin-4-yl)methoxy)benzoic acid]	0.052	
Cc1c(C(=O)Nc2ccc(N3CCN(C(=O)Nc4ccccc4F)CC3)nc2)oc2ccc(-c3ccccc3F)cc12 [Example 20, N-(2-fluorophenyl)-4-(5-(5-(2-fluorophenyl)-3-methylbenzofuran-2-carboxamido)pyridin-2-yl)piperazine-1-carboxamide]	0.115	
CCOC(=O)c1ccccc1NC(=O)N1CCN(c2ccc(NC(=O)c3oc4ccc(-c5ccccc5F)cc4c3C)cn2)CC1 [Example 21, ethyl 2-(4-(5-(5-(2-fluorophenyl)-3-methylbenzofuran-2-carboxamido)pyridin-2-yl)piperazine-1-carboxamido)benzoate]	0.566	
Cc1c(C(=O)Nc2ccc(N3CCN(C(=O)Nc4ccccc4C(=O)O)CC3)nc2)oc2ccc(-c3ccccc3F)cc12 [Example 24, 2-(4-(5-(5-(2-fluorophenyl)-3-methylbenzofuran-2-carboxamido)pyridin-2-yl)piperazine-1-carboxamido)benzoic acid]	0.059	
Cc1c(C(=O)Nc2ccc(N3CCC(OCc4cccc(C(=O)O)c4)CC3)nc2)oc2ccc(-c3ccccc3F)cc12 [Example 25, 3-((1-(5-(5-(2-fluorophenyl)-3-methylbenzofuran-2-carboxamido)pyridin-2-yl)piperidin-4-yloxy)methyl)benzoic acid]	0.093	
Cc1c(C(=O)Nc2ccc(N3CCC(COc4cccc(C(=O)O)c4)CC3)nc2)oc2ccc(-c3ccccc3F)cc12 [Example 26, 3-((1-(5-(5-(2-fluorophenyl)-3-methylbenzofuran-2-carboxamido)pyridin-2-yl)piperidin-4-yl)methoxy)benzoic acid]	0.059	
Cc1c(C(=O)Nc2ccc(N3CCN(C(=O)Nc4ccccc4F)CC3)nc2)oc2ccc(-c3cccc(F)c3)cc12 [Example 27, N-(2-fluorophenyl)-4-(5-(5-(3-fluorophenyl)-3-methylbenzofuran-2-carboxamido)pyridin-2-yl)piperazine-1-carboxamide]	0.316	
Cc1c(C(=O)Nc2ccc(N3CCC(OCc4cccc(C(=O)O)c4)CC3)nc2)oc2ccc(-c3cccc(F)c3)cc12 [Example 29, 3-((1-(5-(5-(3-fluorophenyl)-3-methylbenzofuran-2-carboxamido)pyridin-2-yl)piperidin-4-yloxy)methyl)benzoic acid]	0.134	
CCOC(=O)c1ccccc1NC(=O)N1CCN(c2ccc(NC(=O)c3oc4ccc(-c5cccc(F)c5)cc4c3C)cn2)CC1 [Example 30, ethyl 2-(4-(5-(5-(3-fluorophenyl)-3-methylbenzofuran-2-carboxamido)pyridin-2-yl)piperazine-1-carboxamido)benzoate]	1.42	
Cc1c(C(=O)Nc2ccc(N3CCN(C(=O)Nc4ccccc4C(=O)O)CC3)nc2)oc2ccc(-c3cccc(F)c3)cc12 [Example 31, 2-(4-(5-(5-(3-fluorophenyl)-3-methylbenzofuran-2-carboxamido)pyridin-2-yl)piperazine-1-carboxamido)benzoic acid]	0.084	
Cc1c(C(=O)Nc2ccc(N3CCC(COc4cccc(C(=O)O)c4)CC3)nc2)oc2ccc(-c3cccc(F)c3)cc12 [Example 33, 3-((1-(5-(5-(3-fluorophenyl)-3-methylbenzofuran-2-carboxamido)pyridin-2-yl)piperidin-4-yl)methoxy)benzoic acid]	0.093	
COC(=O)c1cccc(COC2CCN(c3ccc(NC(=O)c4oc5ccc(-c6ccc(F)cc6)cc5c4C)cn3)CC2)c1 [Example 35, methyl 3-((1-(5-(5-(4-fluorophenyl)-3-methylbenzofuran-2-carboxamido)pyridin-2-yl)piperidin-4-yloxy)methyl)benzoate]	0.038	
Cc1c(C(=O)Nc2ccc(N3CCN(C(=O)Nc4ccccc4C(=O)O)CC3)nc2)oc2ccc(-c3ccc(F)cc3)cc12 [Example 36, 2-(4-(5-(5-(4-fluorophenyl)-3-methylbenzofuran-2-carboxamido)pyridin-2-yl)piperazine-1-carboxamido)benzoic acid]	0.09	
Cc1c(C(=O)Nc2ccc(N3CCC(OCc4cccc(C(=O)O)c4)CC3)nc2)oc2ccc(-c3ccc(F)cc3)cc12 [Example 37, 3-((1-(5-(5-(4-fluorophenyl)-3-methylbenzofuran-2-carboxamido)pyridin-2-yl)piperidin-4-yloxy)methyl)benzoic acid]	0.106	
CCOC(=O)c1ccccc1NC(=O)N1CCN(c2ccc(NC(=O)c3oc4ccc(-c5ccc(F)cc5)cc4c3C)cn2)CC1 [Example 38, ethyl 2-(4-(5-(5-(4-fluorophenyl)-3-methylbenzofuran-2-carboxamido)pyridin-2-yl)piperazine-1-carboxamido)benzoate]	1.01	
Cc1c(C(=O)Nc2ccc(N3CCC(COc4cccc(C(=O)O)c4)CC3)nc2)oc2ccc(-c3ccc(F)cc3)cc12 [Example 39, 3-((1-(5-(5-(4-fluorophenyl)-3-methylbenzofuran-2-carboxamido)pyridin-2-yl)piperidin-4-yl)methoxy)benzoic acid]	0.055	
Cc1c(C(=O)Nc2ccc(N3CCN(C(=O)Nc4ccccc4F)CC3)nc2)oc2ccc(-c3ccc(F)cc3)cc12 [Example 40, N-(2-fluorophenyl)-4-(5-(5-(4-fluorophenyl)-3-methylbenzofuran-2-carboxamido)pyridin-2-yl)piperazine-1-carboxamide]	0.1	
Cc1c(C(=O)Nc2ccc(N3CCN(C(=O)Nc4ccccc4F)CC3)nc2)sc2ccc(-c3ccccc3)cc12 [Example 46, N-(2-fluorophenyl)-4-(5-(3-methyl-5-phenylbenzo[b]thiophene-2-carboxamido)pyridin-2-yl)piperazine-1-carboxamide]	0.084	
CCOC(=O)c1ccccc1NC(=O)N1CCN(c2ccc(NC(=O)c3sc4ccc(-c5ccccc5)cc4c3C)cn2)CC1 [Example 50, ethyl 2-(4-(5-(3-methyl-5-phenylbenzo[b]thiophene-2-carboxamido)pyridin-2-yl)piperazine-1-carboxamido)benzoate]	2.33	
